Oligonucleotides are written 5' to 3', each unit as a sugar letter and its base; * is a phosphorothioate linkage, no mark a phosphodiester; rarer units and linkages stand in square brackets, end groups in braces. Plain capitals give the bases only. d = 2'-deoxy (DNA)
Columns and labels:
CD4^+ T cells [1] = experiment: Intracellular calcium measurement (INDO-1AM); type: cell-based, human
Description: Intracellular calcium measurements. Ex vivo isolated CD4^+ T cells were labeled with 5 μM INDO-1AM for one hour at 37° C. in PBS, 1 mM Ca^2+. Cells were washed to remove traces of INDO-1AM, resuspended in buffer at 10^6 cells/ml and incubated for 30 minutes at 37° C. before analysis. When necessary, IRS661 was added at the indicated concentration during the 30 minute incubation. For acquisition, the sample was acquired for approximately 3 minutes to obtain basal levels of calcium and subsequently IMQ or other reagents were added at the indicated concentrations. Samples were acquired for a minimum of 10 minutes on a BD Fortessa instrument and analysed with FlowJo software.

CD4^+ T cells [2] = experiment: Anergy-related gene expression, TaqMan real-time PCR; type: cell-based, human; conditions: preincubation with IRS661 before IMQ
Text: (§1) Quantification of mRNA expression levels by RT-PCR. RNA was isolated using QIAGEN RNeasy Micro Plus Kit (QIAGEN, Valencia, Calif.), following manufacturer's guidelines and converted to cDNA by reverse transcription (RT) with random hexamers and Multiscribe RT (TQMN, Reverse Transcription Reagents; Applied Biosystems, Foster City, Calif.). For mRNA gene expression assays, probes were purchased from Applied Biosystems (Table 2) and the reactions were set up following manufacturer's guidelines and run on a StepOne Real-Time PCR System (Applied Biosystems). Values are represented as the difference in Ct values normalized to β2-microglobulin for each sample as per the following formula: Relative RNA expression=(2^−dCt)×1000.
To examine whether TLR7 stimulation and subsequent NFAT dephosphorylation induces the expression of anergy-related genes, CD4^+ T cells were incubated for 2-16 hours with IMQ in the presence or absence of the TLR7 inhibitory sequence IRS661 and RNA was isolated to examine the hypothesis that TLR7 engagement induced expression of anergy-related genes previously described. As a control for anergy-related gene expression, CD4^+ T cells were incubated with either ionomycin and PMA or ionomycin alone. […] The effect observed in the regulation of these genes was TLR7-specific, as preincubation of CD4^+ T cells with IRS661 before IMQ treatment abrogated the increase in anergy-related gene expression.

memory T cells = experiment: IMQ pretreatment, washout, rest and restimulation with anti-CD3 and anti-CD28; type: cell-based, human; conditions: IRS661 pretreated cells
Description: (§2) Enzyme-linked immunosorbent assay.
To determine if pretreatment of CD4^+ T cells with IMQ would be sufficient to diminish their subsequent cytokine secretion and proliferative response to a full stimulation, memory T cells were pre-treated with IMQ for 2 hours and rested for 12 hours after washout to remove traces of IMQ and then stimulated with anti-CD3 and anti-CD28 for 3 days.

HIV-1^+CD4^+ T cells = experiment: Anergy-related gene expression in in vitro HIV-1-infected CD4+ T cells; type: cell-based, human; conditions: day seven after infection
Text: as §1
To confirm this observation, the expression of anergy-related genes in in vitro HIV-1-infected CD4^+ T cells from five healthy donors in the presence of IRS661 (to inhibit TLR7) or a control sequence at day seven after infection was examined (FIG. 40).

HIV-1 (NL-432) = experiment: HIV-1 infection of humanized MISTRG mice, viral load; type: in vivo, mouse; conditions: 20 μM IRS661 at day 0 or day 14 after infection
Description: Mouse experiments. MISTRG mice (Nature Biotechnology 2014; 32; 364-372) were infected with HIV-1 (50 ng p24) at day 0 in the presence of 20 μM IRS661 or control sequence (at either day 0 or day 14). Serum was obtained at different time points and RNA was isolated by Direct-zol RNA MiniPrep kit (Zymo Research). Viral load was measured by Gag amplification by Real Time PCR
In order to test the role of TLR7 inhibition in HIV-1 infection in vivo, a humanized mouse model (Rongvaux et al., Nat. Biotech., 32:364-372 (2014)) was used. Three groups of mice were infected with HIV-1 (NL-432): one control group, another group that was injected with IRS661 at the same time of HIV-1 infection (day 0), and a third group where IRS661 was injected at the peak of infection (day 14 after HIV-1 infection). […] For those mice that were injected with IRS661 at day 14 after infection (FIG. 55, white dots), viral load was measured at day 21 after infection. One mouse from the control group (black dots) died at day 17.

HIV-1 [3] = conditions: supernatants every three days, 14 days
Description: CD4^+ T cells isolated from HIV-1 infected patients (Table 3) were stimulated in the presence of IRS661 (FIG. 50) or were transduced with two TLR7-specific shRNA (FIG. 51) with supernatant collections every three days for a total of 14 days to measure virus concentration by p24 ELISA.

HIV-1 [4] = conditions: day seven; compared to control cells
Description: Furthermore, proviral integrated DNA load was measured at day seven after stimulation in the presence of IRS661 or a control sequence (FIG. 52) and after transduction with TLR7-specific shRNA (FIG. 53) to monitor the cellular viral reservoir.

CD4^+ T cells [5] = experiment: Proliferation of CFSE-labeled CD4+ T cells stimulated with anti-CD3 and anti-CD28 in the presence of TLR ligands; type: cell-based, human; conditions: for proliferation of CD4+ T cells (frequency of proliferating cells): compared to control; for inhibition of proliferation, level relative to IMQ: three days
Text: Cell isolation and FACS sorting of T cell populations. Peripheral blood mononuclear cells (PBMC) were isolated from healthy donors by Ficoll Hypaque gradient centrifugation. Total CD4^+ T cells were isolated by negative selection using CD4^+ T cell isolation kit (StemCell Technologies, Vancouver, BC) and stained for fluorescence-activated cell sorting (FACS) with the following antibodies: anti-CD45RO (clone UCHL1), CD45RA (clone H1100), CD25 (clone M-A251) (all from BD Biosciences) and CD127 (clone eBioRDR5) from eBioscience (San Diego, Calif.). The Treg (CD4^+CD25^hiCD127^low/neg) memory T cell (CD4^+CD45RA^−CD45RO^+CD25^low/neg+) and naïve T cell (CD4^+CD45RA^+CD45RO^−CD25^low/neg) populations were sorted on a FACS Aria (BD Biosciences). Unless specified, CD4^+ T cells used in the experiments were Treg-depleted CD4^+ T cells and they were sorted as CD4^+CD25^pos/lowCD127^+. The purity of the sorted CD4^+ T cell population was >98% as assessed by CD3 and CD4 staining after sort. CD14^+ cells were isolated by positive selection using EasySep™ Human CD14 Positive Selection Kit (StemCell Technologies).
(§3) Cell activation and intracellular staining.
While examining the costimulatory role of TLR on CD4^+ T cells, it was unexpectedly discovered that entry of CD4^+ cells into cell cycle with T cell receptor cross-linking and anti-CD28 was blocked by TLR7 engagement. Specifically, CD4^+ T cells were stimulated with anti-CD3 and anti-CD28 in the presence of different TLR agonists followed by analysis of proliferation and cytokine secretion.

CD4^+ T cells [6] = experiment: Cytokine secretion by stimulated CD4+ T cells, ELISA; type: cell-based, human; conditions: day 3 after stimulation
Text: as §3, §2

HIV-1NL-D = experiment: HIV-1 in vitro infection of CD4+ T cells; type: cell-based; conditions: for frequency of HIV-1-infected CD4+ T cells: treatment before infection, MOI 0.001
Description: Preparation of HIV-1 virus stocks. HIV-1 proviral DsRed-tagged DNA pNL-D (derived from the prototype HIV-1 proviral DNA pNL432) was kindly provided by Dr. Yasuko Tsunetsugu-Yokota. 293T cells were used to prepare viral stocks following published protocols with minor modifications. In brief, 293T cells were plated at 0.5×10^6/well in 12-well plates and transfected with 2 μg pNL-D using Lipofectamine 2000 (Invitrogen) for 48 hours. Culture supernatant was treated with benzonase (1U/ml) for 30 minutes at 37 C, cleared by filtration and titrated on 293T cells. Stocks were stored at −80 C.
HIV-1 in vitro infection. CD4^+ T cells were stimulated with anti-CD3 (1 μg/ml) and anti-CD28 (1 μg/ml) for 48 hours and subsequently infected with HIV-1 at a MOI of 0.001 (concentration within the physiological range). Viability and cytokine secretion was measured every 48 hours for a total of 11 days after infection.
For HIV-1 infection on TLR7-deficient cells, CD4^+ T cells were stimulated as above and transduced with the corresponding lentiviral particles. 48 hours after transduction, the cells were infected with HIV-1NL-D at a MOI of 0.001. Viability and frequency of HIV-1-infected cells were measured at different time points by LIVE/DEAD cell dye staining and fixation with 1% PFA (to avoid DsRed signal loss). For intracellular staining after infection, the cells were restimulated with PMA and Ionomycin in the presence of GolgiStop for 4 hours and the staining was performed as recommended by Grupillo et al.

Molecule | proliferation of CD4+ T cells (frequency of proliferating cells) (CD4^+ T cells [5]) | IFNγ secretion (CD4^+ T cells [6]) | IL-2 secretion (CD4^+ T cells [6]) | IL-4 secretion (CD4^+ T cells [6]) | IL-17 secretion (CD4^+ T cells [6]) | other results
5′-TGCTTGCAAGCTTGCAAGCA-3′ (DNA dT*dG*dC*dT*dT*dG*dC*dA*dA*dG*dC*dT*dT*dG*dC*dA*dA*dG*dC*dA) [IRS661] | – | – | – | – | – | increase in calcium concentration upon IMQ stimulation (CD4^+ T cells [1]; pre-incubation with IRS661): impaired; IMQ-induced increase in anergy-related gene expression (CD4^+ T cells [2]): abrogated; IMQ-induced decrease of IFNγ production (memory T cells): not observed; IMQ-induced decrease of IL-2 production (memory T cells): not observed; expression of 12 anergy-related genes in HIV-1+CD4+ T cells (HIV-1^+CD4^+ T cells): did not upregulate any of these genes; HIV-1 viral load (HIV-1 (NL-432)): decreases; concentration of p24 in culture (HIV-1 [3]): strongly decreased; proviral DNA load (HIV-1 [4]): dramatic decrease
CCCCNc1nc(N)c2[nH]c(=O)n(Cc3ccc(C(=O)NCC(=O)O)cc3)c2n1 [CL264] | significant decrease | inhibited | inhibited | inhibited | inhibited | –
CCNCc1nc2c(N)nc3ccccc3c2n1CC(C)(C)O [Gardiquimod] | significant decrease | inhibited | inhibited | inhibited | inhibited | inhibition of proliferation, level relative to IMQ (CD4^+ T cells [5]): comparable to IMQ treatment
C=CCn1c(=O)n([C@@H]2O[C@H](CO)[C@@H](O)[C@H]2O)c2nc(N)[nH]c(=O)c21 [Loxoribine] | significant decrease | inhibited | inhibited | inhibited | inhibited | inhibition of proliferation, level relative to IMQ (CD4^+ T cells [5]): comparable to IMQ treatment
COc1cc(N(CC(=O)OCOC(C)=O)CC(=O)OCOC(C)=O)c2nc(COc3cc(C)ccc3N(CC(=O)OCOC(C)=O)CC(=O)OCOC(C)=O)ccc2c1 [Quin-2 AM] | – | – | – | – | – | frequency of viable cells (HIV-1NL-D): significantly decreased; frequency of HIV-1-infected CD4+ T cells (HIV-1NL-D): marked decrease
C[C@H](CCC(=O)O)C[C@H](C)C[C@H](C)C(=O)/C=C(\O)[C@H](C)C[C@H](C)C/C=C/[C@@H](C)[C@@H](O)[C@@H](C)[C@@H](O)C[C@@H]1CC[C@@](C)([C@H]2CC[C@@](C)([C@@H](C)O)O2)O1 [ionomycin] | – | – | – | – | – | frequency of HIV-1-infected CD4+ T cells (HIV-1NL-D): increased
Poly(I:C) | – | – | – | – | – | intracellular calcium concentration (CD4^+ T cells [1]; INDO-1AM ratio over time): not observed

Source: US10308938B2, “Compositions and methods to activate or inhibit toll-like receptor signaling” (priority 2014, dated 2019)
